Data: ChEMBL document CHEMBL3885881, “DrugMatrix”
Several values for one entry are separate records, joined by “and”; a condition that tells them apart may be missing. Equal entries are not always repeated.

Species on record: Rattus norvegicus
Experiment: DrugMatrix - Regimen: Daily Repeat
Assay type: toxicity, organism-based, Sprague-Dawley
Design: regimen Daily Repeat, gender Male, age 6-8 weeks
Conditions: in vivo, vehicle 100 % SALINE; for ALANINE AMINOTRANSFERASE / ALBUMIN / ALKALINE PHOSPHATASE / ASPARTATE AMINOTRANSFERASE / BLOOD UREA NITROGEN / CARBON DIOXIDE / CHLORIDE / CHOLESTEROL / CREATINE PHOSPHOKINASE / CREATININE / GLUCOSE / LACTATE DEHYDROGENASE / LIPASE / PHOSPHORUS / POTASSIUM / SODIUM / TOTAL BILIRUBIN / TOTAL PROTEIN / URIC ACID: tissue Plasma
[1] = ip, 2 mg/kg, 120 h, tissue Blood, route intraperitoneal, dose level High, time 5 day
[2] = ip, 2 mg/kg, 120 h, route intraperitoneal, dose level High, time 5 day
[3] = ip, 2 mg/kg, […], tissue Blood, route intraperitoneal, dose level High, time 14 day
[4] = ip, 2 mg/kg, […], tissue Blood, route intraperitoneal, dose level High, time 28 day
[5] = ip, 2 mg/kg, […], route intraperitoneal, dose level High, time 14 day
[6] = ip, 2 mg/kg, […], route intraperitoneal, dose level High, time 28 day
[7] = po, 0 mg/kg, 72 h, tissue Blood, route oral GAVAGE, dose level Control, time 3 day

LEAD (II) ACETATE
BASOPHIL [1]: 0.92% and 0.35% | EOSINOPHIL [1]: 1.12% and 0.5% | ERYTHROCYTE COUNT [1]: 7.54 x10E6/uL and 7.26 x10E6/uL | HEMATOCRIT [1]: 45.88% and 47.9% | HEMOGLOBIN [1]: 15 G/DL and 15.17 G/DL | LEUKOCYTE COUNT [1]: 13.21 x10E3/uL and 9.67 x10E3/uL | LYMPHOCYTE [1]: 76.12% and 82.6% | MEAN CORPUSCULAR HEMOGLOBIN [1]: 20.9 pg | MEAN CORPUSCULAR HEMOGLOBIN CONCENTRATION [1]: 32.66 G/DL and 31.67 G/DL | MEAN CORPUSCULAR VOLUME [1]: 66 fL | MONOCYTE [1]: 1.94% and 1.57% | NEUTROPHIL [1]: 19.32% and 13.95% | PLATELET COUNT [1]: 1605.4 x10E3/uL and 1679.25 x10E3/uL | ALANINE AMINOTRANSFERASE [2]: 30.6 u/L and 16 u/L | ALBUMIN [2]: 3.32 G/DL and 4.1 G/DL | ALKALINE PHOSPHATASE [2]: 221 u/L and 290.75 u/L | ASPARTATE AMINOTRANSFERASE [2]: 83.2 u/L and 78.25 u/L | BLOOD UREA NITROGEN [2]: 13.8 mg/dL and 16.75 mg/dL | CARBON DIOXIDE [2]: 24 mmol/L | CHLORIDE [2]: 109.2 MEQ/L and 108.75 MEQ/L | CHOLESTEROL [2]: 57 mg/dL and 58.25 mg/dL | CREATINE PHOSPHOKINASE [2]: 338.6 u/L and 224.25 u/L | CREATININE [2]: 0.54 mg/dL and 0.4 mg/dL | GLUCOSE [2]: 117.4 mg/dL and 114.75 mg/dL | LACTATE DEHYDROGENASE [2]: 76.2 u/L | LIPASE [2]: 36 u/L and 14.25 u/L | PHOSPHORUS [2]: 10.02 mg/dL and 13.3 mg/dL | POTASSIUM [2]: 6.38 MEQ/L and 6.15 MEQ/L | SODIUM [2]: 151.2 MEQ/L and 152.25 MEQ/L | TOTAL BILIRUBIN [2]: 0.16 mg/dL and 0.3 mg/dL | TOTAL PROTEIN [2]: 5.8 G/DL and 6.3 G/DL | URIC ACID [2]: 1.08 mg/dL and 2.1 mg/dL | ABSOLUTE BASOPHIL [3]: 88 cells/µL | ABSOLUTE EOSINOPHIL [3]: 74 cells/µL | ABSOLUTE LYMPHOCYTE [3]: 8320 cells/µL | ABSOLUTE MONOCYTE [3]: 390 cells/µL | ABSOLUTE SEGMENTED NEUTROPHIL [3]: 3420 cells/µL | HEMOGLOBIN [3]: 14.2 G/DL | MEAN CORPUSCULAR VOLUME [3]: 59.1 fL | ABSOLUTE BASOPHIL [4]: 93 cells/µL | ABSOLUTE EOSINOPHIL [4]: 130 cells/µL | ABSOLUTE LYMPHOCYTE [4]: 9520 cells/µL | ABSOLUTE MONOCYTE [4]: 320 cells/µL | ABSOLUTE SEGMENTED NEUTROPHIL [4]: 2680 cells/µL | BASOPHIL [4]: 0.79% | EOSINOPHIL [4]: 1.01% | ERYTHROCYTE COUNT [4]: 8.38 x10E6/uL | HEMATOCRIT [4]: 46.51% | HEMOGLOBIN [4]: 14.88 G/DL | LEUKOCYTE COUNT [4]: 12.81 x10E3/uL | LYMPHOCYTE [4]: 74.22% | MEAN CORPUSCULAR HEMOGLOBIN [4]: 17.76 pg | MEAN CORPUSCULAR HEMOGLOBIN CONCENTRATION [4]: 32.02 G/DL | MEAN CORPUSCULAR VOLUME [4]: 55.46 fL | MONOCYTE [4]: 2.51% | NEUTROPHIL [4]: 20.93% | PLATELET COUNT [4]: 1429.8 x10E3/uL | CARBON DIOXIDE [5]: 26 mmol/L | TOTAL PROTEIN [5]: 5.9 G/DL | ALANINE AMINOTRANSFERASE [6]: 25.8 u/L | ALBUMIN [6]: 3.52 G/DL | ALKALINE PHOSPHATASE [6]: 146.4 u/L | ASPARTATE AMINOTRANSFERASE [6]: 80.7 u/L | BLOOD UREA NITROGEN [6]: 13.3 mg/dL | CHLORIDE [6]: 109.1 MEQ/L | CHOLESTEROL [6]: 54 mg/dL | CREATINE PHOSPHOKINASE [6]: 159.1 u/L | CREATININE [6]: 0.58 mg/dL | GLUCOSE [6]: 112.6 mg/dL | LACTATE DEHYDROGENASE [6]: 73.7 u/L | LIPASE [6]: 26.7 u/L | PHOSPHORUS [6]: 9.13 mg/dL | POTASSIUM [6]: 6.27 MEQ/L | SODIUM [6]: 150.5 MEQ/L | TOTAL BILIRUBIN [6]: 0.21 mg/dL | TOTAL PROTEIN [6]: 6.39 G/DL | URIC ACID [6]: 1.41 mg/dL | ABSOLUTE BASOPHIL [7]: 0 CELLS/uL | ABSOLUTE EOSINOPHIL [7]: 37 CELLS/uL | ABSOLUTE LYMPHOCYTE [7]: 12359.33 CELLS/uL | ABSOLUTE MONOCYTE [7]: 122.67 CELLS/uL | ABSOLUTE SEGMENTED NEUTROPHIL [7]: 847.67 CELLS/uL | BASOPHIL [7]: 0% | EOSINOPHIL [7]: 0.33% | ERYTHROCYTE COUNT [7]: 5.75 x10E6/uL | HEMATOCRIT [7]: 36.08% | LEUKOCYTE COUNT [7]: 13.37 x10E3/uL | MEAN CORPUSCULAR HEMOGLOBIN CONCENTRATION [7]: 38.98 G/DL | MONOCYTE [7]: 1% | NEUTROPHIL [7]: 6.17% | NUCLEATED RED BLOOD CELLS [7]: 0.17 /100WBC | PLATELET COUNT [7]: 1202.17 x10E3/uL
